Assay results published in PMC8274934, “FisB relies on homo-oligomerization and lipid binding to catalyze membrane fission in bacteria” (PLoS Biology, 2021).
Changes are numbered by the printed parent chain.

Experiments:
[1] = biological target: His6-FisB ECD (recombinant soluble extracytoplasmic domain of fission protein B, wild type) (B. subtilis); assay: negative-stain electron microscopy; high molecular weight SEC fractions on carbon-coated grids, 2% uranyl acetate
iFluor555-FisB ECD [2] = biological target: T1, iFluor555-FisB ECD (Bacillus subtilis, UniProt O32131, G123C); assay: liposome co-flotation, fluorescence of gel band; type: binding; settings: apparent, in total lipid concentration, 55% PC, 100 nM labelled protein, room temperature, 1 h
T1 construct: iFluor555-maleimide on G123C; forms soluble oligomers
T1 sequence (O32131 39-254 G123C limits assumed): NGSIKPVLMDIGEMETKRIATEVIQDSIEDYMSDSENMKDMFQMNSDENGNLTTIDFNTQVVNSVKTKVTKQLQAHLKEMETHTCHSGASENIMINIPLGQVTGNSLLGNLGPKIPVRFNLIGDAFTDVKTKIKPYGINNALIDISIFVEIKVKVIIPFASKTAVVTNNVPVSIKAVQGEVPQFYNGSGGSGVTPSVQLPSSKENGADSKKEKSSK

iFluor555-FisB ECD [3] = biological target: T2, iFluor555-FisB ECD (Bacillus subtilis, UniProt O32131, G123C/K168D/K170E); assay: liposome co-flotation, fluorescence of gel band; type: binding; settings: apparent; in total lipid concentration; liposomes 45 mole % CL, 55% PC; 100 nM labelled protein; room temperature, 1 h; read-out: KdKK
T2 construct: iFluor555-maleimide on G123C; forms soluble oligomers
T2 sequence (O32131 39-254 G123C/K168D/K170E limits assumed): T1 sequence (O32131 39-254 G123C limits assumed) with K130D, K132E

Substance: His6-FisB ECD (recombinant soluble extracytoplasmic domain of fission protein B, wild type) (domain or fragment)
- stoichiometry N [1]: 40 copies

Substance: cardiolipin [CL]
- Kd (iFluor555-FisB ECD [2]; liposomes 45 mole % CL): 1 µM
- Kd (iFluor555-FisB ECD [3]): 9.1 µM

Substance: phosphatidylglycerol [PG]
- Kd (iFluor555-FisB ECD [2]; liposomes 45 mole % PG): 3.6 µM
